Molecules are shown by their SMILES. ≈ marks a conversion by molar mass, not a printed value.

This experiment concerns pediatric patients with ADHD. Description: Integrated PKPD model fit to SKAMP total score measurements from the Day 7 classroom evaluation. As to conditions: base (final) PKPD model estimate, 81 pediatric patients. Type of experiment: in vivo, human. An excerpt: This example describes the development of a pharmacokinetic-pharmacodynamic model for the therapeutic effect of a particular methylphenidate formulation and its testing on a population of pediatric patients with ADHD. The drug formulation tested in this example is designated MPH XR-ODT and described in U.S. Publication No. 2014/0030348, which is incorporated herein by reference.
The structural PK model for a plasma concentration following administration of the stimulant was described by two parallel inputs into a central compartment and linear elimination from the central compartment.
Body weight appears as a covariate of CL and V which was included in the model in the following way: CLi=tvCL*Weight^0.655 Equation 1 Vi=tvV*Weight^0.670 Equation 2 where CL, and V, are the clearance and volume of distribution parameters for individual “i”, tvCL and tvV are the typical population clearance and volume of distribution parameters, and weight is body weight in kg. Model parameters were determined using nonlinear mixed-effects modeling with first-order conditional maximum likelihood estimation using Phoenix NLME (Version 6.3).
This phenomenon was readily obvious in the patients that were assigned to the placebo treatment arm. Therefore, the PD model required a drug effect component and a placebo effect component. […]

As for `COC(=O)C(c1ccccc1)C1CCCCN1` (centres unmarked) [methylphenidate], the “Emax, maximum reduction in SKAMP total score with administration of methylphenidate” value is on record as 38.1. Moreover, the EC50 (Homo sapiens, simulated plasma concentrations, read-out: EC50, concentration of methylphenidate required to achieve 50% of the maximal reduction in SKAMP total score) was 0.0142 µg/mL (≈ 0.061 µM).

The record behind these values is US11166947B2, “Effective dosing of a child for the treatment of ADHD with methylphenidate” (Neos Therapeutics, LP, priority 2016, dated 2021).
